Tests used:
[1] = tested on: arrhythmia induced by an intravenous administration of calcium chloride; experiment: Antiarrhythmic activity on a model of arrhythmia induced by intravenous calcium chloride (antagonism to calcium) in mice; assay type: in vivo; settings: white mice, 20-40 minutes before
Experimental: The specific (antiarrhythmic) effect and acute toxicity were studied.
The antiarrhythmic activity of the compounds according to the present invention was studied on a model of arrhythmia induced by an intravenous administration of calcium chloride. In experiments on white mice of both sexes with a mass of 18-25 g narcotized by urethane (1,200 mg/kg intraperitoneally) ECG in the second standard lead was recorded. A 2% solution of calcium chloride was introduced into the tail vein at a constant rate (0.01 ml for 2 sec). The dose of calcium chloride causing arrhythmia and the dose causing the heart arrest were determined. In the test groups the test compounds were administered intraperitoneally 20-40 minutes before the beginning of the experiment.

white mice = experiment: in vivo
Experimental: (§1) The study of the effect provided by the compounds according to the present invention on the cardio-vascular system was carried out in experiments on white mice. The specific (antiarrhythmic) effect and acute toxicity were studied.
(§2) The acute toxicity of the compounds according to the present invention was determined in experiments on white mice with a mass of 20-25 g. The test compounds were administered intraperitoneally in the form of aqueous solutions or suspensions in Twin-80. Observation over the test animals was effected for 10 days.

in vivo = settings: mouse, in vivo, ip
Experimental: as §1, §2

Compound | Dose of calcium chloride causing arrythmia in animals under experiment ([1]; intraperitoneal dose 5 mg/kg) | Dose of calcium chloride causing death in animals under experiment ([1]; intraperitoneal dose 5 mg/kg) | Dose of calcium chloride causing arrythmia in animals under experiment ([1]; intraperitoneal dose 15 mg/kg) | Dose of calcium chloride causing death in animals under experiment ([1]; intraperitoneal dose 15 mg/kg) | Relative toxisity to quinidine (white mice; mouse, in vivo, ip, 14400 min) | LD50 at 240 h (in vivo) | Relative toxisity to quinidine (white mice; white mice, intraperitoneal, relative to quinidine)
CCOC(=O)CCN(C(=O)c1ccccc1)N(C)C [I-44, 3-(2,2-dimethyl-1-benzoylhydrazino)ethylpropionate] | 101,0 mg/kg | 120,0 mg/kg | 98,5 mg/kg | 126,0 mg/kg | 10,5 | 1650 mg/kg | 
CCOC(=O)CCN(C(=O)c1ccccc1F)N(C)C [I-45, 3-/2,2-dimethyl-1-(2'-fluorobenzoyl)-hydrazino/ethylpropionate] | 95,0 mg/kg | 112,5 mg/kg | 102,8 mg/kg | 125,0 mg/kg | 9,4 | 1480 mg/kg | 
CCOC(=O)CCN(C(=O)c1ccc(Br)cc1)N(C)C [I-46, 3-/2,2-dimethyl-1-(4'-bromobenzoyl)hydrazino/ethylpropionate] | 98,0 mg/kg | 105,0 mg/kg | 100,0 mg/kg | 118,3 mg/kg | 9,6 | 1500 mg/kg | 
CC(=O)N(CCC(N)=O)N(C)C [I-47, 3-(2,2-dimethyl-1-acetylhydrazino)propionamide] | 103 mg/kg | 118 mg/kg | 108 mg/kg | 125 mg/kg | > 19,2 | > 3000 mg/kg | 
CCCC(=O)N(CCC(N)=O)N(C)C [I-48, 3-(2,2-dimethyl-1-butyrylhydrazino)propionamide] | 88 mg/kg | 101,8 mg/kg | 95,3 mg/kg | 109 mg/kg | 10,9 | 1700 mg/kg | 
CCCCCC(=O)N(CCC(N)=O)N(C)C [I-49, 3-(2,2-dimethyl-1-hexanoylhydrazino)propionamide] | 101,3 mg/kg | 120,5 mg/kg | 108,6 mg/kg | 136,8 mg/kg | 6,1 | 960 mg/kg | 
CCCCCCCCCCCCCCCCCC(=O)N(CCC(N)=O)N(C)C [I-50, 3-(2,2-dimethyl-1-octadecanoylhydrazino)propionamide] | 102,4 mg/kg | 118,0 mg/kg | 118,6 mg/kg | 142,5 mg/kg | > 19,2 | > 3000 mg/kg | 
CN(C)N(CCC(N)=O)C(=O)c1ccccc1 [I-51, 3-(2,2-dimethyl-1-benzoylhydrazino)propionamide] | 88,7 mg/kg | 105,5 mg/kg | 93,5 mg/kg | 112,0 mg/kg | 20,1 | 3150 mg/kg | 
CN(C)N(CCC(N)=O)C(=O)CCO [I-52, 3-(2,2-dimethyl-1-γ-hydroxypropanoylhydrazino)propionamide] | 93 mg/kg | 112,0 mg/kg | 97,6 mg/kg | 123,6 mg/kg | > 19,2 | > 3000 mg/kg | 
COC(=O)N(CCC(N)=O)N(C)C [I-53, 3-(2,2-dimethyl-1methoxycarbonylhydrazino)propionamide] | 98,5 mg/kg | 132,0 mg/kg | 121,0 mg/kg | 138,5 mg/kg |  | 1880 mg/kg | 12,0
CN(C)N(CCC#N)C(=O)c1ccccc1 [I-54, 3-(2,2-dimethyl-1-benzoylhydrazino)propionitrile] | 108,3 mg/kg | 130,0 mg/kg | 102,5 mg/kg | 133,0 mg/kg | 6,6 | 1030 mg/kg | 
